The results in this text go back to US9938321B2, “Cyclic peptoid oligomers, pharmaceutical compositions and methods of using the same” (priority 2013, dated 2018).

In general, solubility refers to the dissolved amount per volume that the medium holds. Usually MIC stands for the lowest concentration found to suppress growth. A high value points to weaker potency. What is called IC50 is the midpoint of a concentration-inhibition curve. Higher therefore signals weaker potency in that assay.

Converted amounts (≈) assume the structure as drawn. Like-named read-outs stand apart in the source and are kept apart here.

One data set can be described thus: physchem. Particulars: water.
The test system of data set [1] is MRSA USA300 (S. aureus LAC). On the procedure:
The cyclic pentamers and hexamers were evaluated for antimicrobial activity against S. aureus LAC, a clinical isolate of MRSA. The antimicrobial assay was conducted using previously published procedures (CLSI Broth Macrodilution Procedures CLSI M07-A7).
(§1) Minimum Inhibitory Concentrations (MIC) were determined against S. aureus LAC in RPMI media supplemented with or without normal human serum (NHS). The 10% hemolytic dose was determined from lysis of human erythrocytes. A selectivity ratio (SR) is defined as HC10/MIC. Cytotoxicity assays were performed using a CellTiter kit with HeLa cells. […] TI: therapeutic index defined as LD50/MIC.
(§2) Antimicrobial susceptibility assays were conducted in 96-well plates using the broth microdilution procedure outlined in the document M07-A7 of the CLSI (Clinical and Laboratory Standards Institute. Methods for Dilution Antimicrobial Susceptibility Tests for Bacteria That Grow Aerobically-Seventh Edition: Approved Standard CLSI document M07-A7. CLSI, Wayne, USA, 2006). Screens against Staphylococcus aureus LAC, MW2, Newman, and RN6734 were conducted in RPMI (Roswell Park Memorial Institute) medium. For assays in serum, normal human pooled serum (NHS) was filtered through a 0.45 μm syringe filter (Pall) prior to dilution with RPMI, such that each well contained 50% (v/v) NHS. Experiments were conducted in three independent replicates of three parallel trials to ensure statistical significance.
(§3) MRSA pulse-field gel electrophoresis types USA300 (strain LAC) (Kennedy, et al, Proc. Natl. Acad. Sci. U.S.A. 2008, 105, 1327-1332) and USA500 (BK2395) (Alonzo, 3rd, et al, Mol. Microbiol. 2012, 83, 423-435) were used in this study. S. aureus were grown in tryptic soy broth (BD Biosciences) as described previously. (Alonzo) Antimicrobial susceptibility assays were conducted in 96-well plates using the broth […] procedure outlined in the document M07-A7 of the CLSI. (Clinical and Laboratory Standards Institute. Methods for Dilution Antimicrobial Susceptibility Tests for Bacteria That Grow Aerobically-Seventh Edition: Approved Standard CLSI document M07-A7. CLSI, Wayne, USA, 2006). The screens against Staphylococcus aureus LAC were conducted in either LB (Luria-Bertani) or RPMI medium. For assays in serum, normal human pooled serum (NHS) was filtered through a 0.45 μm syringe filter (Pall) prior to dilution with RPMI, such that each well contained 50% (v/v) NHS. Experiments were conducted in three independent replicates of three parallel trials to ensure statistical significance.

Data set [2] has as its system Plasmodium falciparum 3D7. The following applies: 3D7, 96 h.
Protocol: In order to assess the ability of the peptoid oligomers described herein to act as antimalarial agents, fluorescence-based in vitro antimalarial assays were performed.
Cultures are maintained by changing the medium daily and keeping parasitemia below 6%. When performed, parasite cultures are synchronized using a MACS cell separation column (Miltenyi Biotec). To determine parasitemia, the number of parasitized erythrocytes from 500 cells in a Giemsa stained blood smear are counted.
Drug Treatment: • 1. Add 100 μL of warm (37° C.) complete media containing drug to each well of a 96 multi-well clear, sterile plate. • 2. […] After 96 hours of growth*, freeze at −80° C. overnight. *Note: Growth can be examined by pipetting 5 from desired wells onto slides and creating blood smears. […] After freezing, thaw at 37° C. for 4 hours. • 6. Transfer 100 μL, pipetting wells up and down to mix, to a black, sterile 96 well plate. • 7. Create working solution of 0.2 μL of SYBR Green per 1 mL of lysis buffer, and add 100 μL of this solution to each well, pipetting up and down to mix/lyse erythrocytes. *Note: mixture should be a translucent red color. • 8. Incubate at room temperature, protected from light, on a shaker for 1 hour.
Measure the fluorescence using excitation and emission wavelengths of 485 and 530 nm, respectively. […]
The next data set has as its system HeLa cells. Description: in vitro. Particulars: HeLa cells, 1 hr incubation at 37° C. On the procedure:
(§4) As an additional parameter of selectivity, the inventors also evaluated the compounds for toxicity towards nucleated mammalian cells (FIG. 3). The compounds were incubated with HeLa cells for 1 hr at 37° C. and cell viability was determined by a dye-based assay.
(§5) HeLa cells (˜[…] cells per well) were seeded in a tissue culture-treated 96-well plate (Corning). The cells were monitored for confluence via light microscopy prior to the addition of compounds to a final volume of 100 μL/well. Following incubation with the compounds (for 1 hour or 24 hours at 37° C.), Cell Titer (Promega) was added to each well and the assay was allowed to develop for 1 hour at 37° C. Absorbance was then read at 490 nm using a Wallac Envision plate reader. The experiments were always conducted in triplicate with water or ethanol as the negative control. Percent cell viability (% CV) was calculated as the ratio of mean absorbance of the test wells and the mean absorbance of the water or ethanol treated wells.
(§6) Following seeding in DMEM supplemented with 10% v/v FBS (fetal bovine serum) in tissue-culture plates (Corning), adherent HeLa cells were trypsinized, washed in PBS, and re-suspended in medium at a density of 1×10^6 cells/mL. A 100 μL cell suspension was seeded onto a 96-well plate and cultured for 25 hrs. Subsequently, cells were exposed to the different compounds for 1 and 24 hrs and the cell viability evaluated using CellTiter 96® AQueous Non-Radioactive Cell Proliferation Assay (Promega).

The nature of the next data set: in vitro. Particulars: human. On the procedure:
as §4, §5, §6

The next data set concerns human erythrocytes. Type of data set: cell-based. Particulars: red cells of human, 1 h. From the text: A detrimental property of most AMPs is their toxicity towards host cells due to non-specific interactions with eukaryotic membranes. Thus, the development of antimicrobial oligomers is often aimed at maximizing antimicrobial activity while minimizing eukaryotic cell toxicity. The inventors therefore sought to determine the toxicity of the cyclic peptoids by measuring hemolytic activity. The concentration of antimicrobial compound required to lyse 10% of human erythrocytes (HC10) following incubation for 1 hour at 37° C., was determined.
Hemolysis assays were conducted in 96-well plates using fresh human erythrocytes in PBS (phosphate-buffered saline) solution. Erythrocytes treated with a detergent (1% Triton X-100) solution were used as a positive control for erythrocyte lysis, and vehicle buffer (PBS) was used as a negative control. Hemolytic percentages were defined as [(A−Atestblank)/(Acontrol−Ablank)]×100, where A is the absorbance of the test well and Acontrol the average absorbance of wells with erythrocytes exposed to […], Atestblank (PBS and antimicrobial) and Ablank (PBS only).

For the next data set, the system named is S. aureus LAC. Description: Scanning electron microscopy of treated cells (Example 1). Type of data set: cell-based, Staphylococcus aureus. Particulars: sub-MIC, MIC, or supra-MIC; 1 hr or 18 hr. From the text:
AMPs have long been thought to exert their bactericidal activities by interacting with negatively-charged bacterial membranes (Zasloff, Nature 2002, 415, 389-395; Ivankin, et al, Angew. Chem. Int. Ed. 2010, 49, 8462-8465). While the exact mode of action has yet to be fully understood, the interaction of the AMP eventually leads to damage of the bacterial membrane that is visible by scanning electron microscopy (SEM). (Hartmann et al, 2010, Antimicrob Agents Ch 54, 3132-3142) SEM was used to examine the morphological changes which occur to the S. aureus cell surface upon exposure to peptoid antimicrobials (FIG. 2).
SEM samples were prepared following the procedure outlined in Hartmann et al ([…], Antimicrob Agents Ch 54:3132-3142). Mid-exponential S. aureus LAC in LB medium (10 g/L tryptone and 5 g/L yeast, pH 7.4) was prepared by diluting an overnight culture of S. aureus LAC in LB media till OD600˜0.4 (approximately 3 hours at 37° C.). […] After washing with PBS, the samples were treated with 30% ethanol for 10 minutes, 3% uranyl acetate (Electron Microscopy Sciences) in 30% ethanol/water, 50% ethanol for 10 minutes, and 70% ethanol overnight at 4° C. […]

Data set [3] concerns MRSA USA300 (S. aureus LAC). On the procedure: The antimicrobial activities of these four compounds were evaluated in the presence of serum. Such a consideration is critical in evaluating the potential of antimicrobial compounds to be used systemically, as serum components (e.g. proteins) may complicate antimicrobial activity. The assay was conducted similarly as described above, with the media supplemented with 50% normal human serum (NHS).
as §1, §2, §3
The source holds these as a separate data set.

Compound `Cc1cc(C)cc(CN2CC(=O)N(CCCN)CC(=O)N(Cc3cc(C)cc(C)c3)CC(=O)N(CCCN)CC(=O)N(Cc3cc(C)cc(C)c3)CC(=O)N(CCCN)CC2=O)c1` [Compound C124, C(NapNdmb)3] displayed a solubility in the data set “physchem” of at least 15 mg/mL. Also, the minimum inhibitory concentration (MIC) in data set [1] (Table 2, S. aureus LAC, clinical isolate of MRSA) amounted to 3.9 µg/mL (≈ 4.49 µM); in data set [1] (USA300), 3.9 µg/mL (≈ 4.49 µM). Further, inhibition in data set [2] was half-maximal at 17 µM (IC50). In the data set on HeLa cells, the “LC50 (50% lethal concentration)” value is around 180 µg/mL (≈ 207 µM). In the data set “in vitro”, the CC50 at 24 h was around 100 µg/mL (≈ 115 µM). The compound also registered a CC50 at 1 h in “in vitro” (LC50 (50% lethal concentration), HeLa cells, 1 hr incubation at 37° C.) of 180 µg/mL (≈ 207 µM). Further, the “HC10 (concentration required to lyse 10% of human erythrocytes)” value in the data set with human erythrocytes came to 125 µg/mL. The “cell morphology by SEM” value in the data set with S. aureus LAC is “cell surface damage”. Besides, in data set [3] (50% NHS versus no serum), the “decrease in anti-microbial activity in serum” value is “approximately four-fold”. For the same compound, the “MIC + NHS” value in data set [3] (MRSA USA300 in 50% (v/v) normal human serum) is 15.6 µg/mL.
